Results on five compounds are retold here after paper PMC2570486, “The Recently Identified P2Y-Like Receptor GPR17 Is a Sensor of Brain Damage and a New Target for Brain Repair” (PLoS ONE, 2008).

As a reminder, the IC50 is the concentration needed to halve the response being measured. The term EC50 denotes the concentration that produces a half-maximal response.

One assay deals with T1, GPR17 (Mus musculus, UniProt Q6NS65).
T1 construct: from tissue; host or cells: brain of living male CD1 mice after permanent MCAo
Briefly: Permanent MCAo focal cerebral ischemia, brain infarct size by MRI. It is filed as in vivo.

The target in the next assay is T2, mGPR17 (Mus musculus, UniProt Q6NS65).
T2 construct: contains a 1020 base pairs open reading frame (ORF) that encodes for a putative 339 amino acid protein; expressed in transfected cells; host or cells: 1321N1 human astrocytoma cells (transient, calcium phosphate); membranes
Description: [35S]GTPγS binding in membranes of 1321N1 cells transfected with pcDNA3.1-Gpr17m. The format is biochemical. The conditions noted are these: for EC50: membranes of 1321N1 cells expressing mouse GPR17, mean±SEM of three experiments, read-out: EC50, stimulation of [35S]GTPγS binding. The method, then:
The pharmacological profile of mGPR17 was then assessed. Since stimulation of GPCRs results in increased binding of GTP to G proteins (which can, in turn, be quantified by measuring [^35S]GTPγS binding to purified membranes; see [13]), GPR17 activation in the heterologous system was determined by testing the increase of [^35S]GTPγS binding by exogenously-added agonists in membranes from transfected cells, [14], [15]. […] The ability of some known purinergic and cysLT antagonists to counteract agonist-induced GTPγS binding stimulation in cells expressing mGPR17 was also assessed.
Figure 1 Effect of purinergic and leukotriene ligands on mGPR17 with [^35S]GTPγS binding. Membrane aliquots (10 µg), obtained from 1321N1 cells transfected with pcDNA3.1-Gpr17m (A,B), were incubated with the indicated concentrations of purinergic (A) or leukotriene (B) agonists. […] (D) Effect of P2Y or CysLT receptor antagonist on agonist-stimulated [^35S]GTPγS binding. […] All data are expressed as percentage of basal [^35S]GTPγS binding (set to 100%) and represent the mean±SEM of three different experiments each performed in duplicate.
Human astrocytoma cells 1321N1 cells were cultured as described. For [^35S]GTPγS, 10^6 1321N1 cells were seeded on 75 cm^2 flasks and transfected by the calcium phosphate precipitation method.
Control and transfected 1321N1 cells were homogenized in 5 mM TRIS-HCl, 2 mM EDTA, pH 7.4 and centrifuged at 48000 g for 15 min at 4°C. The resulting plasma membranes were suspended in binding buffer and used in [^35S]GTPγS binding assay as previously described.
For [^35S]GTPγS binding data analysis and graphic presentation, a non-linear multipurpose curve-fitting program Graph-Pad Prism was used and the EC50 values were derived. Data are reported as mean±SEM of three different experiments (performed in duplicate).
Background: GTPγS is a poorly hydrolysed GTP analogue; its binding reports G protein activation.

Assay [1] deals with GPR17+ oligodendrocyte precursors in primary cortical cultures. Briefly: Oligodendrocyte precursor maturation in primary mixed neuronal/glial cortical cultures (immunostaining, cell counts). The conditions noted are these: 72 h. It is filed as cell-based, rat.
Description: Figure 4 Presence and activation of GPR17 in oligodendrocyte precursor cells of primary cortical cultures maintained in vitro. […] Micrographs (A–H) show their phenotype characterization. […] Colocalization of GPR17 with these markers is shown in yellow-orange cells. […] In blue, Hoechst 33258 stained nuclei. Single cell RT-PCR was used to confirm expression of GPR17 in oligodendroglial-like cells (I). For this analysis, cells were picked up from living cultures using cell morphology as a guide at the light microscope. Left micrograph: an example of a brightfield showing cells (arrows) with oligodendrocyte morphology. These cells can be distinguished from neurons based on their size (approximately 1/3 the size of neurons), phase-dark cell bodies and presence of fine ramifications. The oligodendrocyte nature of cells with this morphology was confirmed by co-immunostaining for O4 and GPR17 at a subsequent time after culture fixing (arrows in right micrograph). By following this method, one living cell or a small number of cells (up to 10) were sucked from living cultures (see MATERIALS AND METHODS) and processed for RT-PCR analysis. […] Rat cortex was utilized as a positive control (see last lane). Scale bars: 15 µm. […] (K) Quantification of the percentage of GPR17^+ cells that also co-express the indicated oligodendrocyte markers. Total number (n) of GPR17^+ cells counted from two different coverslips for each preparation: for NG2, n = 3502; for O4, n = 2685; for CNPase, n = 1738; for MBP, n = 3615. Data were obtained from five different primary culture preparations.
Primary mixed neuronal/glial cultures from cerebral cortex were obtained from E18 Sprague-Dawley rats according to standard procedures [34]. Pregnant animals were euthanized by cervical dislocation under CO2 anesthesia, and the fetuses removed and put into ice-cold Hanks balanced salt solution. […]
Setting [2] is: UDP-glucose 100 µM, LTD4 100 nM.

T2 sequence (Q6NS65 whole entry): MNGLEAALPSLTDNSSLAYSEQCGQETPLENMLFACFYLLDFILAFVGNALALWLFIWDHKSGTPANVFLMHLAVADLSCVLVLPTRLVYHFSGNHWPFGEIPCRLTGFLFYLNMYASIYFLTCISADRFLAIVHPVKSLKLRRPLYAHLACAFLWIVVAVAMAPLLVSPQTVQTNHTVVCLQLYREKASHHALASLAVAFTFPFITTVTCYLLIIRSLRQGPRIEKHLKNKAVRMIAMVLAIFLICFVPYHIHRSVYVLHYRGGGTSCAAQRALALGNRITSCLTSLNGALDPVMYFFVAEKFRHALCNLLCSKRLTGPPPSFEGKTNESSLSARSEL
T1 sequence (Q6NS65 whole entry): as above

For `CSCCNc1nc(SCCC(F)(F)F)nc2c1ncn2[C@@H]1O[C@H](COP(=O)(O)OP(=O)(O)C(Cl)(Cl)P(=O)(O)O)[C@@H](O)[C@H]1O` [Cangrelor], the “progression of ischemic damage (brain infarct volume) at 24 and 48 h vs 2 h” value at GPR17 (cangrelor 1.125 µg/animal i.c.v. 20 min after MCAo, oligonucleotides 10 µg/animal i.c.v. 20 min and 24 h after MCAo) is recorded as “totally abolished”. In addition, the “ischemic infarct volume at 2 h after MCAo” value on GPR17 (i.c.v. treatment 20 min after MCAo, 6 animals/group, no significant differences between groups) turned out to be 16.4±4.23 mm^3. Further, the concentration for half-maximal inhibition (IC50) at mGPR17 (membranes of 1321N1 cells expressing mGPR17, 10 min pre-incubation, 500 nM UDP, read-out: IC50, inhibition of GTPγS binding stimulated by UDP) is 1.2 ± 0.3 nM. In assay [1] (10 µM antagonist with 100 µM UDP-glucose), the “effect on UDP-glucose-induced increase of GPR17+ and MBP+ cells” value is “partially counteracted”.

On to `CCCCC/C=C\C\C=C/C=C/C=C/[C@@H](SC[C@H](NC(=O)CC[C@H](N)C(=O)O)C(=O)NCC(=O)O)[C@@H](O)CCCC(=O)O` [LTC4], for which, on mGPR17, the EC50 was found to be 0.74 ± 0.2 nM.

For the compound `CCCCC/C=C\C\C=C/C=C/C=C/[C@@H](SC[C@H](N)C(=O)NCC(=O)O)[C@@H](O)CCCC(=O)O` [LTD4], the EC50 on mGPR17 came to 0.63 ± 0.1 nM. Further, in assay [1] (setting [2]), the “number of GPR17+ precursor cells” value was “significantly increased” and the “number of mature MBP+ oligodendroglial cells” value is “significantly increased”.

For `CCCCC/C=C\C\C=C/C=C/C=C/[C@@H](SC[C@H](N)C(=O)O)[C@@H](O)CCCC(=O)O` [LTE4], the EC50 at mGPR17 is 0.31 ± 0.09 nM.

Take `O=c1ccn([C@@H]2O[C@H](COP(=O)(O)OP(=O)(O)O)[C@@H](O)[C@H]2O)c(=O)[nH]1` [UDP]: the 50% effective concentration (EC50) at mGPR17 was 55 ± 6.2 nM.
